Tests used:
Assay type in all cases: functional
Plasmodium berghei [1] = experiment: Antiplasmodial activity against Plasmodium berghei ANKA infected in C57BL/6 mice (Mus musculus) assessed as parasitemia at 2 ug/g, intraperitoneally on days 2,4 and 6
Plasmodium berghei [2] = experiment: Antiplasmodial activity against Plasmodium berghei ANKA infected in C57BL/6 mice (Mus musculus) assessed as parasitemia at 0.5 ug/g, intraperitoneal on day 2, 1 ug/g, intraperitoneal on day 4 followed by 2 ug/g on day 6
Plasmodium berghei [3] = experiment: Antiplasmodial activity against Plasmodium berghei ANKA infected in C57BL/6 mice (Mus musculus) assessed as parasitemia at 40 ug/g, intraperitoneally on days 2,4 and 6
Plasmodium berghei [4] = experiment: Antiplasmodial activity against Plasmodium berghei ANKA infected in C57BL/6 mice (Mus musculus) assessed as parasitemia at 100 ug/g, perorally on days 1,3 and 5

**Q.** What does the source list for CCC(C)(C)C(=O)O[C@H]1C[C@@H](C)C=C2C=C[C@H](C)[C@H](CC[C@@H]3C[C@@H](O)CC(=O)O3)[C@H]21 [SIMVASTATIN]?
**A.** Activity (Plasmodium berghei [1]): 2.38%; Activity (Plasmodium berghei [2]): 3.04%; Activity (Plasmodium berghei [3]): 2.04%; Activity (Plasmodium berghei [4]): 2.98%
